# Test results from patent US20230278972A1, “SUBSTITUTED HALOALKYL SULFONANILIDE HERBICIDES” (FMC Corporation, priority 2020, published 2023).
# Experiments:
# Format in all cases: in vivo
# rice (Oryza sativa) = test: Test B1 flooded paddy test, rice; details: 250 g ai/ha, Flood, applied to paddy water, 2-leaf stage, visually evaluated after 10 to 14 days
# Excerpt: (§1) A dash (-) response means no test result.
# corn (Zea mays) [1] = test: Test A1 postemergence, corn; details: Postemergence
# Method in brief: (§2)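 Test compounds were formulated in a non-phytotoxic solvent mixture containing a surfactant. For preemergence, seeds sown in a loam soil–sand blend received a directed soil spray. For postemergence, potted plants in the same soil, 2 to 10 cm tall at the one- to two-leaf stage, were sprayed.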
# [2] = tested on: ducksalad (Heteranthera limosa); test: Test B1 flooded paddy test, ducksalad; details: 250 g ai/ha, Flood, applied to paddy water, 2-leaf stage, visually evaluated after 10 to 14 days
# Excerpt: as §1
# corn (Zea mays) [3] = test: Test A1 preemergence, corn
# Method in brief: (§3)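 Plants were grown in a loam soil/sand blend, with test chemicals formulated in a non-phytotoxic solvent mixture containing surfactant. Preemergence treatment (corn) was a directed soil spray at planting. Postemergence treatment was applied to plants 2 to 10 cm tall at the one- to two-leaf stage.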
# [4] = tested on: Foxtail, Giant (giant foxtail, Setaria faberi); test: Test A1 preemergence, Foxtail, Giant
# Method in brief: as §2
# [5] = tested on: galium (catchweed bedstraw, Galium aparine); test: Test A1 postemergence, galium; details: Postemergence
# Method in brief: as §2
# [6] = tested on: ragweed (common ragweed, Ambrosia artemisiifolia); test: Test A1 postemergence, ragweed; details: Postemergence
# Method in brief: as §3
# [7] = tested on: Ryegrass, Italian (Italian ryegrass, Lolium multiflorum); test: Test A1 preemergence, Ryegrass, Italian
# Method in brief: as §2
# soybean (Glycine max) = test: Test A1 preemergence, soybean
# Method in brief: as §2
# [8] = 31 g ai/ha, 0 to 100 scale (0 no effect, 100 complete control), 10 days
# [9] = 31 g ai/ha, 0 to 100 scale (0 no effect, 100 complete control)
# [10] = 125 g ai/ha, 0 to 100 scale, 0 no effect, 100 complete control
Compound,"Plant response rating, Rice (0 to 100 scale, 0 is no effect, 100 is complete control) (rice (Oryza sativa))","Plant response rating, Corn (corn (Zea mays) [1]; [8])","Plant response rating, Corn (corn (Zea mays) [1]; 125 g ai/ha, 0 to 100 scale)","Plant response rating, Ducksalad (0 to 100 scale, 0 is no effect, 100 is complete control) [2]","Plant response rating, Corn (corn (Zea mays) [3]; [9])","Plant response rating, Corn (corn (Zea mays) [3]; [10])","Plant response rating, Foxtail, Giant [4, 9]","Plant response rating, Foxtail, Giant [4, 10]","Plant response rating, Galium [5, 8]","Plant response rating, Galium ([5]; 125 g ai/ha, 0 to 100 scale)","Plant response rating, Ragweed [6, 8]","Plant response rating, Ragweed ([6]; 125 g ai/ha, 0 to 100 scale)","Plant response rating, Ryegrass, Italian [7, 9]","Plant response rating, Ryegrass, Italian [7, 10]","Plant response rating, Soybean (soybean (Glycine max); [9])","Plant response rating, Soybean (soybean (Glycine max); [10])"
Cc1cc(C(F)(F)F)c(C2=NOC3CCCC23)cc1NS(=O)(=O)C(F)(F)F (centres unmarked) [Compound 306],0,0,0,85,0,0,0,20,60,80,0,70,0,80,0,0
Cc1cc(C)c(N(COC(=O)C(C)C)S(=O)(=O)C(F)(F)F)cc1C1=NOC2CCCC12 (centres unmarked) [Compound 308],10,0,30,90,0,60,50,80,60,90,50,90,60,90,0,30
Cc1cc(Br)c(NS(=O)(=O)C(F)(F)F)cc1C1=NOC2(CCCC2)C1 [Compound 309],0,0,30,60,0,0,60,90,40,80,0,50,60,90,0,0
Cc1cc(F)c(C2=NOC3CCCC23)cc1NS(=O)(=O)C(F)(F)F (centres unmarked) [Compound 310],0,0,0,0,0,0,0,20,0,0,0,30,40,50,0,0
CCc1cc(C)c(C2=NOC3(CCCC3)C2)cc1NS(=O)(=O)C(F)(F)F [Compound 311],0,0,0,0,0,0,0,10,0,0,0,0,0,60,0,0
COc1cc(C)c(NS(=O)(=O)C(F)(F)F)cc1C1=NOC2CCCC12 (centres unmarked) [Compound 312],0,0,0,0,0,10,20,30,0,30,0,40,0,40,0,50
COC(=O)OCN(c1cc(C2=NOC3CCCC23)c(C)cc1C)S(=O)(=O)C(F)(F)F (centres unmarked) [Compound 315],35,20,20,90,10,20,70,90,70,90,20,80,70,100,40,50
Cc1cc(C)c(N(COC(=O)OC(C)(C)C)S(=O)(=O)C(F)(F)F)cc1C1=NOC2CCCC12 (centres unmarked) [Compound 316],0,0,0,90,0,0,0,30,40,50,0,50,30,50,0,0
Cc1cc(C)c(N(COC(=O)N(C)C)S(=O)(=O)C(F)(F)F)cc1C1=NOC2CCCC12 (centres unmarked) [Compound 317],0,0,0,30,0,0,0,0,0,0,10,0,0,0,0,0
CCOC1CC(c2cc(NS(=O)(=O)C(F)(F)F)c(C)cc2C)=NO1 (centres unmarked) [Compound 318],0,30,60,80,0,70,30,90,60,60,60,80,50,90,0,30
Cc1c(C(=O)N(C)C)cc(NS(=O)(=O)C(F)(F)F)c(Cl)c1F [Compound 320],0,0,0,60,0,30,10,100,70,90,40,80,90,90,20,40
Cc1c(C(=O)N2CCOCC2)cc(NS(=O)(=O)C(F)(F)F)c(Cl)c1F [Compound 321],10,10,20,95,0,30,30,100,100,100,90,90,60,60,60,60
Cc1cc(C)c(C2=NOC(OCC(C)C)C2)cc1NS(=O)(=O)C(F)(F)F (centres unmarked) [Compound 322],0,0,0,0,0,30,40,80,40,70,70,80,60,90,0,0
CCCCOC1CC(c2cc(NS(=O)(=O)C(F)(F)F)c(C)cc2C)=NO1 (centres unmarked) [Compound 323],0,0,0,0,0,10,50,90,50,80,0,50,40,90,0,0
